In assay [1] the test system is spermatozoids. In words: Count or daily production of spermatozoids (synthetic macamide). In kind it is in vivo. The note with it: inventors' laboratory (Gonzales, 2006 page 104). From the text:
(§1) In the inventors' laboratory, the effect of a synthetic macamide, N-benzyl-5-oxo-6E, 8E-octadecadienamide, has been tested, which had no effect in the count or daily production of spermatozoids (Gonzales, 2006 page 104). […] Most of the biological activity is rather found in the more polar fractions (Gonzales, 2006; 2006a; Valerio & Gonzales, 2005).

Assay [2] relates to spermatozoids. In words: Number of spermatozoids in mice. The format is in vivo.
Description: as §1

In assay [3] the test system is Bacillus subtilis. Conditions: between six sesquiterpene lactones tested; cited from earlier work.

Consider `CCCCCCCCC/C=C/C=C/C(=O)CCCC(=O)NCc1ccccc1` [N-benzyl-5-oxo-6E, 8E-octadecadienamide], for which the “effect in the count or daily production of spermatozoids” value in assay [1] was “no effect”. For the molecule `CCCCCCCCCCCCCCCC(=O)NCc1ccccc1` [N-benzyl-hexadecanamide], in assay [2], the “effect on the number of spermatozoids” value was “not been observed”. As for Fluctuanine, in assay [3], the antibacterial activity result was “greatest antibacterial activity”.

These data come from US7985434B2, “Compositions of atomized or lyophilized maca (Lepidium meyenii) extracts and atomized or lyophilized yacon (Smallanthus sanchifolius) extracts as adjuvants in the treatment of different conditions” (Universidad Peruana Cayetano Heredia, priority 2009, dated 2011).
